Where a name gives a salt, the structure may show the parent alone.
Experiments:
[1] = target: cGMP-inhibited 3',5'-cyclic phosphodiesterase 3A (Homo sapiens, UniProt Q14432); test: Inhibition of full-length recombinant human PDE3A using [3H]-cGMP as substrate incubated for 10 mins by SPA assay
[2] = target: 3',5'-cyclic-AMP phosphodiesterase 4D (Homo sapiens, UniProt Q08499); test: Inhibition of his-tagged recombinant human PDE4D catalytic domain (T86 to S413 residues) expressed in Escherichia coli BL21(DE3) using [3H]-cAMP as substrate incubated for 10 mins by SPA assay
[3] = target: cGMP-specific 3',5'-cyclic phosphodiesterase (Homo sapiens, UniProt O76074); test: Inhibition of his-tagged recombinant human PDE5A catalytic domain (E535 to Q860 residues) expressed in Escherichia coli BL21(DE3) using [3H]-cGMP as substrate incubated for 10 mins by SPA assay
[4] = target: Cone cGMP-specific 3',5'-cyclic phosphodiesterase subunit alpha' (Homo sapiens, UniProt P51160); test: Inhibition of full-length recombinant human PDE6C using [3H]-cGMP as substrate incubated for 10 mins by SPA assay
[5] = target: High affinity 3',5'-cyclic-AMP phosphodiesterase 7A (Homo sapiens, UniProt Q13946); test: Inhibition of his-tagged recombinant human PDE7A catalytic domain (S130 to S482 residues) expressed in Escherichia coli BL21(DE3) using [3H]-cAMP as substrate incubated for 10 mins by SPA assay
[6] = target: High affinity cAMP-specific and IBMX-insensitive 3',5'-cyclic phosphodiesterase 8A (Homo sapiens, UniProt O60658); test: Inhibition of full-length recombinant human PDE8A using [3H]-cAMP as substrate incubated for 10 mins by SPA assay
High affinity cAMP-specific and IBMX-insensitive 3',5'-cyclic phosphodiesterase 8A, sequence (O60658 whole entry, the tested form may be a part): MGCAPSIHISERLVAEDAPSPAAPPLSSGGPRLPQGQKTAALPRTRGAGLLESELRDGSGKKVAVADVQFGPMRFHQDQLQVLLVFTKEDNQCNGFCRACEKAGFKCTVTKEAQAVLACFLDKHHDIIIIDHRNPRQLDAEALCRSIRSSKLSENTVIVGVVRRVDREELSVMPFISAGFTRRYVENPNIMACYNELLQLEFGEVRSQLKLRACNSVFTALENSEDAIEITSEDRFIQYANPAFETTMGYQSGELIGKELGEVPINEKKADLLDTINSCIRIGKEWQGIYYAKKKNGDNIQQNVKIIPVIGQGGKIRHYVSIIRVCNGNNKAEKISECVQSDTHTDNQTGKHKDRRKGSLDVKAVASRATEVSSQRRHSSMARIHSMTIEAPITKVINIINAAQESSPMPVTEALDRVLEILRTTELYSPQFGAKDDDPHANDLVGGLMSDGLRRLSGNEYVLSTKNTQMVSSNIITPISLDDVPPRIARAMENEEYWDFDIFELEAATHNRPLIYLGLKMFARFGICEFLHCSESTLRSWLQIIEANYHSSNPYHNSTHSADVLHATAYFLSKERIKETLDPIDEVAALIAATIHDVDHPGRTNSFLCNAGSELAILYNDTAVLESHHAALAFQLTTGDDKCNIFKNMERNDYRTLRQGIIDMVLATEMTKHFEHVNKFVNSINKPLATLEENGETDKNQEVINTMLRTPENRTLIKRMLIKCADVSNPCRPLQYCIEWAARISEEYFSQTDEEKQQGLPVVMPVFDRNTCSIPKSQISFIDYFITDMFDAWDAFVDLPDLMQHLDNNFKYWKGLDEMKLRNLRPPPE

[7] = target: High affinity cGMP-specific 3',5'-cyclic phosphodiesterase 9A (Homo sapiens, UniProt O76083); test: Inhibition of his-tagged recombinant human PDE9A catalytic domain (P181 to K506 residues) expressed in Escherichia coli BL21(DE3) using [3H]-cGMP as substrate incubated for 10 mins by SPA assay
High affinity cGMP-specific 3',5'-cyclic phosphodiesterase 9A, sequence (O76083 whole entry, the tested form may be a part): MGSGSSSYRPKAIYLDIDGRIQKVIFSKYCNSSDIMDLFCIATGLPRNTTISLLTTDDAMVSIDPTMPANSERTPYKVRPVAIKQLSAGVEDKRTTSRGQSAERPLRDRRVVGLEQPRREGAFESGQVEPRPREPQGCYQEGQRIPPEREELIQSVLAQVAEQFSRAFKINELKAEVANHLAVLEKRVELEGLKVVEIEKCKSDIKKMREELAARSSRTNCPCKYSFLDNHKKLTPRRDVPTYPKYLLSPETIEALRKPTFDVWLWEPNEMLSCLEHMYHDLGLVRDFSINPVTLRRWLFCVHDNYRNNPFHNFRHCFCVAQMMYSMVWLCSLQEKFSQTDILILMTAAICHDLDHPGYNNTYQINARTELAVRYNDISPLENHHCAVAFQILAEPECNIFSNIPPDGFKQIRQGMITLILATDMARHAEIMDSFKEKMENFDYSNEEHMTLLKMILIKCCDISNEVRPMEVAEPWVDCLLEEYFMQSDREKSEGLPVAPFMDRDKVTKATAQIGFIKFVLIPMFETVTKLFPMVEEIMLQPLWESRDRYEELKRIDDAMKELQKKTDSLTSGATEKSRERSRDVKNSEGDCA

[8] = target: cAMP and cAMP-inhibited cGMP 3',5'-cyclic phosphodiesterase 10A (Homo sapiens, UniProt Q9Y233); test: Inhibition of his-tagged recombinant human PDE10A catalytic domain (S439 to A766 residues) expressed in Escherichia coli BL21(DE3) using [3H]-cAMP as substrate incubated for 10 mins by SPA assay
cAMP and cAMP-inhibited cGMP 3',5'-cyclic phosphodiesterase 10A, sequence (Q9Y233 whole entry, the tested form may be a part): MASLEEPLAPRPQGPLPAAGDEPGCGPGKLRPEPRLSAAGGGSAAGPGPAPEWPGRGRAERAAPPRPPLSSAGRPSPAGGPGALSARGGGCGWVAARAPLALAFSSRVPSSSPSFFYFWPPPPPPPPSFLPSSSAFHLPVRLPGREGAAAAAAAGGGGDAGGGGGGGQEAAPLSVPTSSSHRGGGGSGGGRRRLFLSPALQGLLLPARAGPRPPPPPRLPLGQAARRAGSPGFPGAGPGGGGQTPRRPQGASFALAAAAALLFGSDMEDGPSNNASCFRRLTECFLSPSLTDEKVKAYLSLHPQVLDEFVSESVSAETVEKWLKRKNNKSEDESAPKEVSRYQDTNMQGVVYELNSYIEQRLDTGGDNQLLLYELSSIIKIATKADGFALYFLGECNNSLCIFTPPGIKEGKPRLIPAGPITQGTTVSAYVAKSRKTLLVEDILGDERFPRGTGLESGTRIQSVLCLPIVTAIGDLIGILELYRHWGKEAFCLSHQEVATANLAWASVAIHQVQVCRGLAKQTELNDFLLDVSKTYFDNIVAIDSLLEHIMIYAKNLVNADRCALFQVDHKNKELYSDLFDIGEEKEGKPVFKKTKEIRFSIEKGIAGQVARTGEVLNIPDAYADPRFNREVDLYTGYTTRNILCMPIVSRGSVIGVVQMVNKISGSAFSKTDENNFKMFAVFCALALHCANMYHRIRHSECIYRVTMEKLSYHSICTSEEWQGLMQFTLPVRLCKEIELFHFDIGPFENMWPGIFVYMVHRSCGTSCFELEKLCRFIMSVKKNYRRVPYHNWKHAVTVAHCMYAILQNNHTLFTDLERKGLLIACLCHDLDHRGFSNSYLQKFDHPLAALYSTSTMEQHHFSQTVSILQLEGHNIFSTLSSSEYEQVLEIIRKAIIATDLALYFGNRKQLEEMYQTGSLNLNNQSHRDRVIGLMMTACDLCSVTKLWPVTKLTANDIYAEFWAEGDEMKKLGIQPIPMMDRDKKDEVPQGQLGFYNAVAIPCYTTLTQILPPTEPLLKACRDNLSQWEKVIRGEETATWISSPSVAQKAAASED

[9] = target: Dual 3',5'-cyclic-AMP and -GMP phosphodiesterase 11A (Homo sapiens, UniProt Q9HCR9); test: Inhibition of full-length recombinant human PDE11A using [3H]-cAMP as substrate incubated for 10 mins by SPA assay
Dual 3',5'-cyclic-AMP and -GMP phosphodiesterase 11A, sequence (Q9HCR9 whole entry): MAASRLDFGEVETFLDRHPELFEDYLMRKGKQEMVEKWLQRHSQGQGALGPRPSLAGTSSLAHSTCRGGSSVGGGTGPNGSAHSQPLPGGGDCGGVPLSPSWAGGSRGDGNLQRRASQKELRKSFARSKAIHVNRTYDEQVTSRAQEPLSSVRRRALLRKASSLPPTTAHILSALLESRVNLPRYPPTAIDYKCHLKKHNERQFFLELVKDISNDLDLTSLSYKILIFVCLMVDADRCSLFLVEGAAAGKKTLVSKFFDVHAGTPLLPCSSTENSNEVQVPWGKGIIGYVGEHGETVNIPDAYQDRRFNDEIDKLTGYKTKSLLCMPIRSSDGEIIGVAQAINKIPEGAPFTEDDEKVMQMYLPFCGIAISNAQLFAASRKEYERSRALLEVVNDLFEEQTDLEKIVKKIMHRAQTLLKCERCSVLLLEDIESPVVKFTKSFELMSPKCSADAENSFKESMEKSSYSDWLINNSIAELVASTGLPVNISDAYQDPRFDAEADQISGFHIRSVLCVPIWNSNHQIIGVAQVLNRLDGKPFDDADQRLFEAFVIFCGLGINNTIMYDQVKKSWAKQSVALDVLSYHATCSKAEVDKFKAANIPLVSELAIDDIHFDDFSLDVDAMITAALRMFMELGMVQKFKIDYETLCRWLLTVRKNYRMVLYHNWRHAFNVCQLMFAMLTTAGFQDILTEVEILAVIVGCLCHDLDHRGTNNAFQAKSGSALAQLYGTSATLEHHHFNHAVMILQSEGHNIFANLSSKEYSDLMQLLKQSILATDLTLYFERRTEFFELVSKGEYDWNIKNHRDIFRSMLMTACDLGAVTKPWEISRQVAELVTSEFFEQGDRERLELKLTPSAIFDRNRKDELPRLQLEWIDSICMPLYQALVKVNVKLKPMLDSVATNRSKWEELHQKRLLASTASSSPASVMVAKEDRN

[10] = target: T1, Dual specificity calcium/calmodulin-dependent 3',5'-cyclic nucleotide phosphodiesterase 1A (Homo sapiens, UniProt P54750); test: Inhibition of full-length recombinant human PDE1A using [3H]-cGMP as substrate at 1 uM incubated for 10 mins by SPA assay relative to control
T1 sequence (P54750 whole entry): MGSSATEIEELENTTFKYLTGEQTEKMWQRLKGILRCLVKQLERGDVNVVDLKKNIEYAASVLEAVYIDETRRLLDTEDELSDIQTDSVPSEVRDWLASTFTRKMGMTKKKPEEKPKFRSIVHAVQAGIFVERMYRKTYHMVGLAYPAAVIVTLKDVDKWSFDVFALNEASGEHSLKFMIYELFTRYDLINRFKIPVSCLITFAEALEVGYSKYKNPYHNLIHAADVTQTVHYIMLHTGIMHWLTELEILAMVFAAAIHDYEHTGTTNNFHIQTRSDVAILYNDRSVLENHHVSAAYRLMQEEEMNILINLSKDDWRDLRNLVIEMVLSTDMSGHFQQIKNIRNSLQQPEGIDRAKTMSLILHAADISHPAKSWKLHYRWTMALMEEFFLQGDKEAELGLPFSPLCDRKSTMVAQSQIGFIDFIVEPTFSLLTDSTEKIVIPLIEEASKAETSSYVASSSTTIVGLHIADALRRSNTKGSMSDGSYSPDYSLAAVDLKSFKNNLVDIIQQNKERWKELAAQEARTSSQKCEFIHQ

[11] = target: T2, cGMP-dependent 3',5'-cyclic phosphodiesterase (Homo sapiens, UniProt O00408); test: Inhibition of full-length recombinant human PDE2A using [3H]-cGMP as substrate at 1 uM incubated for 10 mins by SPA assay relative to control
T2 sequence (O00408 whole entry, the tested form may be a part): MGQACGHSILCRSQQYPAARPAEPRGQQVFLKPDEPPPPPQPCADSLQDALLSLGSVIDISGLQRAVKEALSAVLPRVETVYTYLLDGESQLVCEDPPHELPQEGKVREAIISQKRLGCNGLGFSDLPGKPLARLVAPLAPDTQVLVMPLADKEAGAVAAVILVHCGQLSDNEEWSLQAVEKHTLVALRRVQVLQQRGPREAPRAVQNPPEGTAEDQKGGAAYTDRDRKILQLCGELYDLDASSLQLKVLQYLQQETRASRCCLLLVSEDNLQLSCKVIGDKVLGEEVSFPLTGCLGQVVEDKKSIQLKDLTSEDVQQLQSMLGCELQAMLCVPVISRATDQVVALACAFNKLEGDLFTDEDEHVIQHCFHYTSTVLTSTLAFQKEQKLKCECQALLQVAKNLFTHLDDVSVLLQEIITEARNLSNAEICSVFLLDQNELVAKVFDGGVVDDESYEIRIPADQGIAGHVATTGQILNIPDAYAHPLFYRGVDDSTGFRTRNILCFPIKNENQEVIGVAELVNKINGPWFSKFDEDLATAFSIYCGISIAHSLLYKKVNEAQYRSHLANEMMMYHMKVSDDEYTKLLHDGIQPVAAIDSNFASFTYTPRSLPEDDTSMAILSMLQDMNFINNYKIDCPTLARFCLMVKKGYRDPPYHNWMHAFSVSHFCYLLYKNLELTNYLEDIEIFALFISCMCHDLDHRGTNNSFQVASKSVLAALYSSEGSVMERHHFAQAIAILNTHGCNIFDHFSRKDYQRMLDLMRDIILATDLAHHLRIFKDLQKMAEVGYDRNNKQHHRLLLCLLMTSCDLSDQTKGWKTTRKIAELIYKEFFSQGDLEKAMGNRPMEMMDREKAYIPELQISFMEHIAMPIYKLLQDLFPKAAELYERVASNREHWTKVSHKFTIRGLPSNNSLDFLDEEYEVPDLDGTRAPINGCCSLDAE

Homo sapiens = species on record: Homo sapiens; test: Selectivity index, ratio of IC50 for full-length recombinant human PDE6C using [3H]-cGMP as substrate to IC50 for his-tagged recombinant human PDE4D catalytic domain (T86 to S413 residues) expressed in Escherichia coli BL21(DE3) using [3H]-cAMP as substrate
[12] = target: T1, Dual specificity calcium/calmodulin-dependent 3',5'-cyclic nucleotide phosphodiesterase 1A; test: Inhibition of full-length recombinant human PDE1A using [3H]-cGMP as substrate incubated for 10 mins by SPA assay
[13] = target: T2, cGMP-dependent 3',5'-cyclic phosphodiesterase; test: Inhibition of full-length recombinant human PDE2A using [3H]-cGMP as substrate incubated for 10 mins by SPA assay

Compound	IC50 [1] [nM]	IC50 [2] [nM]	IC50 [3] [nM]	IC50 [5] [nM]	IC50 [6] [nM]	IC50 [7] [nM]	IC50 [8] [nM]	IC50 [9] [nM]	further results
COc1ccc(CNc2nc(N(CCO)CCO)nc3c2cnn3C(C)C)cc1	> 1000	2250	120	> 10000	> 10000	> 10000	> 1000	> 10000	IC50 [4]: 160 nM; inhibition [10]: 59.6%; inhibition [11]: 67.9%; Ratio IC50 (Homo sapiens): 1
Cn1cc(-c2ccncc2)c(-c2ccc(OCc3ccc4ccccc4n3)cc2)n1 [MARDEPODECT]		1740							
CCOc1ccc(Cc2nccc3cc(OCC)c(OCC)cc23)cc1OCC [ETHAVERINE HYDROCHLORIDE]		410							
COc1ccc(CNc2nc(N(CCO)CCO)nc3c2ncn3C(C)C)cc1	> 10000	420	230	> 10000	> 10000	> 10000	1290	> 1000	IC50 [12]: > 1000 nM; IC50 [13]: > 1000 nM
O=C(O)c1ccc2c(c1)nc(Nc1cccc(Cl)c1)c1ccncc12 [SILMITASERTIB]		1000							
COc1ncc(-c2ccc3nccc(-c4ccnnc4)c3c2)cc1NS(=O)(=O)c1ccc(F)cc1F [OMIPALISIB]		1770							
CCOc1ccn(-c2ccc(F)cc2)c(=O)c1C(=O)Nc1ccc(Oc2ccnc(N)c2Cl)c(F)c1 [BMS-777607]		2460							
COc1ccc2c(c1)CC[C@H]1[C@H]3CC[C@H](NCCCCCCN4C(=O)C=CC4=O)[C@@]3(C)CC[C@@H]21		940							
COc1ccc(CNc2nc(N(CCO)CCO)nc3c2[nH]c(=O)n3C(C)C)cc1	> 10000	1780	40	> 10000	> 10000	> 10000	> 10000	> 10000	IC50 [12]: > 10000 nM; IC50 [13]: > 1000 nM; IC50 [4]: 90 nM; Ratio IC50 (Homo sapiens): 2

From ChEMBL document CHEMBL5634154, “Drug repurposing and structure-based discovery of new PDE4 and PDE5 inhibitors” (Eur J Med Chem, 2023)
